Data as given in the NIST ThermoML archive (doi:10.1016/j.tca.2011.08.021).
Several values for one entry are separate records, joined by “and”; a condition that tells them apart may be missing. Equal values may be shown once.

Assays:
[1] = 393 K; 101.33 kPa; Crystal; X-ray diffraction
[2] = molar heat capacity at constant pressure; settings: 101.33 kPa, Crystal, Small sample (50 mg) DSC

[Nd+3].[Nd+3].[O-2].[O-2].[O-2].[O-2].[O-2].[O-2].[O-2].[Zr+4].[Zr+4] [dineodymium(III) dizirconium(IV) oxide]
Settings	mass density [kg/m3]
[1]	6411

[2]
Settings	molar heat capacity at constant pressure
293 K	236.67 J/K/mol
303 K	238.41 J/K/mol
313 K	240.75 J/K/mol
573 K	275.35 J/K/mol
623 K	280.65 J/K/mol
673 K	284.79 J/K/mol
723 K	288.11 J/K/mol
773 K	290.8 J/K/mol
823 K	293.01 J/K/mol
873 K	294.85 J/K/mol
923 K	296.39 J/K/mol
973 K	297.7 J/K/mol
1023 K	298.83 J/K/mol
1073 K	299.79 J/K/mol
1123 K	300.63 J/K/mol and 302 J/K/mol
1173 K	301.36 J/K/mol
1273 K	302.57 J/K/mol
1323 K	303.07 J/K/mol
1373 K	303.52 J/K/mol
